Holding throughout (format): biochemical
One assay concerns the target T1, human OGA (Homo sapiens, UniProt O60502).
T1 construct: made in house
T1 sequence (O60502 1-916): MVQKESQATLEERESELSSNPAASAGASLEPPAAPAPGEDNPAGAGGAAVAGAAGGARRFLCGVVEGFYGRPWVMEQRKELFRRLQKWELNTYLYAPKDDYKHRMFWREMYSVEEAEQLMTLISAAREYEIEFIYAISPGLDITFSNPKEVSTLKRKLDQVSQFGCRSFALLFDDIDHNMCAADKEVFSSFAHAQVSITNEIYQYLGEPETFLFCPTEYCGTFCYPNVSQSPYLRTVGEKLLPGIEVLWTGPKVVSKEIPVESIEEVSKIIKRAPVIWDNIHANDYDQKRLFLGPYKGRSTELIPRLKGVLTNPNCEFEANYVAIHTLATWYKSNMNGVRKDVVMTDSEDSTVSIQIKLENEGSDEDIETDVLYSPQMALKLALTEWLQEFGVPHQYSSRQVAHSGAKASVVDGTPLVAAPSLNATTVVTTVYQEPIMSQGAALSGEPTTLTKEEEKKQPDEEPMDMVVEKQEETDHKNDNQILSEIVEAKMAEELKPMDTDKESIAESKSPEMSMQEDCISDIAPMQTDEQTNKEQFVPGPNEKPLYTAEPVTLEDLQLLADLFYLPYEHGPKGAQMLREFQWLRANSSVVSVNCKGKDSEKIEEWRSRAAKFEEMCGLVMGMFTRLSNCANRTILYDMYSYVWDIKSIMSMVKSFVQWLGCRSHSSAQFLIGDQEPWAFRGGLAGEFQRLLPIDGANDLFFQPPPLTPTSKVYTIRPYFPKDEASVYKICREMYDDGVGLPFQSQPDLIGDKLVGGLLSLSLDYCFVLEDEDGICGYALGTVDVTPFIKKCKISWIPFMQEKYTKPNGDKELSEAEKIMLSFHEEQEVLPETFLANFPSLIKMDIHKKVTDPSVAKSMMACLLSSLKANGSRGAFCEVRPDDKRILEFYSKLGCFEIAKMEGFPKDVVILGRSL
Put plainly: Determination of IC50 values for inhibition of human OGA. On the procedure: Inhibitors identified from the screen described in Example 1 were evaluated for IC50 using a procedure adapted from Biochem. J. 2009, 420, 221-227. IC50 determination was carried out using a range of inhibitor concentrations from 300 μM to 0.003 μM or 100 μM to 0.001 μM. IC50 values were calculated using XLFit 4.

Assay [1] concerns human β-hexosaminidase [human placenta] (HexA/B). Kind of assay: Determination of IC50 values for inhibition of human β-hexosaminidase. Conditions: ratio. On the procedure: (§1) Inhibitors identified from the screen described in Example 1 were evaluated for IC50 against human β-hexosaminidase [human placenta, Sigma-Aldrich] using a range of inhibitor concentrations from 300 μM to 0.003 μM or 100 μM to 0.001 μM and the following reaction conditions:
(§2) Reactions were carried out at room temperature for thirty minutes and then quenched through the addition of 150 μl 0.5M Na2CO3. Fluorescence readings were taken at excitation wavelength 360 nm and emission wavelength 450 nm. IC50 values were calculated using XLFit 4. The selectivity ratio for inhibition of human O-GlcNAcase over human β-hexosaminidase is defined here as:
(§3) IC50(human β-hexosaminidase)/IC50(Human OGA)

For assay [2], the target named is T2, human β-hexosaminidase [human placenta] (HexA/B).
T2 construct: other: human β-hexosaminidase, human placenta; room temperature, thirty minutes
The assay is described as above. Conditions: human β-hexosaminidase, human placenta; room temperature, thirty minutes. On the procedure:
as §1, §2, §3

A word on the IC50: it is the point on the concentration scale where inhibition reaches its midpoint.

On to `CCCCCCN1[C@H](CC(=O)NC)[C@H](O)[C@H](O)[C@@H]1CO` [Compound A036, 2-((2R,3S,4R,5S)-1-hexyl-3,4-dihydroxy-5-(hydroxymethyl)pyrrolidin-2-yl)-N-methylacetamide], for which the IC50 on human OGA stood at 136 µM; in assay [2] it was 73 µM. The “Selectivity: IC50(human β-hexosaminidase)/IC50(Human OGA)” value in assay [1] worked out at 0.54.

Regarding `CCCCCCN1[C@H](CC(=O)NCC(C)C)[C@H](O)[C@H](O)[C@H]1CO` [Compound A027, 2-((2R,3S,4R,5R)-1-hexyl-3,4-dihydroxy-5-(hydroxymethyl)pyrrolidin-2-yl)-N-isobutylacetamide], the IC50 against human OGA is 11.6 µM; in assay [2] it was greater than 300 µM. Further, in assay [1], the “Selectivity: IC50(human β-hexosaminidase)/IC50(Human OGA)” value is greater than 25.95.

As for `CCCNC(=O)C[C@@H]1[C@H](O)[C@H](O)[C@@H](CO)N1CCCCCCCCCO` [Compound A005, 2-((2R,3S,4R,5R)-3,4-dihydroxy-5-(hydroxymethyl)-1-(9-hydroxynonyl)pyrrolidin-2-yl)-N-propylacetamide], the 50% inhibitory concentration (IC50) on human OGA is 0.144 µM; in assay [2], greater than 300 µM. Besides, in assay [1], the “Selectivity: IC50(human β-hexosaminidase)/IC50(Human OGA)” value is given as greater than 2142.

For the compound `CNC(=O)C[C@@H]1[C@H](O)[C@H](O)[C@@H](CO)N1CCCCCCO` [Compound A040, 2-((2R,3S,4R,5R)-3,4-dihydroxy-1-(6-hydroxyhexyl)-5-(hydroxymethyl)pyrrolidin-2-yl)-N-methylacetamide], the IC50 amounted to 0.045 µM at human OGA and 151 µM in assay [2]. For the same compound, the “Selectivity: IC50(human β-hexosaminidase)/IC50(Human OGA)” value in assay [1] came to 3355.

For the compound `CCCCCCN1[C@H](CC(=O)NCCO)[C@H](O)[C@H](O)[C@H]1CO` [Compound A028, 2-((2R,3S,4R,5R)-1-hexyl-3,4-dihydroxy-5-(hydroxymethyl)pyrrolidin-2-yl)-N-(2-hydroxyethyl)acetamide], the values for the half-inhibitory concentration (IC50) (at human OGA; in assay [2]) were 215 µM and no less than 300 µM, respectively. In assay [1], the “Selectivity: IC50(human β-hexosaminidase)/IC50(Human OGA)” value is given as greater than 1.39.

As for `CNC(=O)C[C@@H]1[C@H](O)[C@H](O)[C@@H](CO)N1CCOc1ccccc1` [Compound A037, 2-((2R,3S,4R,5R)-3,4-dihydroxy-5-(hydroxymethyl)-1-(2-phenoxyethyl)pyrrolidin-2-yl)-N-methylacetamide], the figures for the IC50 (at human OGA; in assay [2]) were 0.228 µM and greater than 300 µM, respectively. Besides, the “Selectivity: IC50(human β-hexosaminidase)/IC50(Human OGA)” value in assay [1] is greater than 1315.

On to `CCCCCCN1[C@H](CO)[C@@H](O)[C@H](O)[C@@H]1CC(=O)NC` [Compound A047, 2-((2S,3R,4R,5R)-1-hexyl-3,4-dihydroxy-5-(hydroxymethyl)pyrrolidin-2-yl)-N-methylacetamide], for which the IC50 at human OGA is 0.926 µM; in assay [2], 0.405 µM. Besides, in assay [1], the “Selectivity: IC50(human β-hexosaminidase)/IC50(Human OGA)” value is recorded as 0.44.

On to `CCNC(=O)C[C@@H]1N[C@H](CO)[C@@H](O)[C@@H]1O` [Compound A051, 2-((2S,3R,4R,5R)-3,4-dihydroxy-5-(hydroxymethyl)pyrrolidin-2-yl)-N-ethylacetamide], for which the IC50 on human OGA was 28.8 µM; in assay [2], greater than 300 µM. Besides, in assay [1], the “Selectivity: IC50(human β-hexosaminidase)/IC50(Human OGA)” value is given as greater than 10.43.

In the case of `CNC(=O)C[C@@H]1[C@@H](O)[C@H](O)[C@H](CO)N1CCCc1ccccc1` [Compound A058, 2-((2R,3R,4R,5S)-3,4-dihydroxy-5-(hydroxymethyl)-1-(3-phenylpropyl)pyrrolidin-2-yl)-N-methylacetamide], the figures for the IC50 (at human OGA; in assay [2]) were 0.228 µM and 0.031 µM, respectively. In addition, in assay [1], the “Selectivity: IC50(human β-hexosaminidase)/IC50(Human OGA)” value was found to be 0.14.

`CCCCCCN1[C@H](CO)[C@@H](O)[C@H](O)[C@@H]1CC(=O)NCC` [Compound A054, N-ethyl-2-((2S,3R,4R,5R)-1-hexyl-3,4-dihydroxy-5-(hydroxymethyl)pyrrolidin-2-yl)acetamide]: the results for the IC50 (at human OGA; in assay [2]) were 6.98 µM and greater than 300 µM, respectively. Moreover, in assay [1], the “Selectivity: IC50(human β-hexosaminidase)/IC50(Human OGA)” value is listed as greater than 42.98.

Take `CCNC(=O)C[C@@H]1[C@@H](O)[C@H](O)[C@@H](CO)N1CCCc1ccc(S(=O)(=O)NCC)cc1` [Compound A070, N-ethyl-2-((2R,3R,4R,5R)-1-(3-(4-(N-ethylsulfamoyl)phenyl)propyl)-3,4-dihydroxy-5-(hydroxymethyl)pyrrolidin-2-yl)acetamide]: the half-maximal inhibitory concentration (IC50) against human OGA stood at 0.0075 µM; in assay [2], 166 µM. Moreover, in assay [1], the “Selectivity: IC50(human β-hexosaminidase)/IC50(Human OGA)” value is reported as 22133.

Regarding `CCCCCCN1[C@H](CO)[C@@H](O)[C@H](O)[C@H]1CC(=O)NC` [Compound A046, 2-((2R,3R,4R,5R)-1-hexyl-3,4-dihydroxy-5-(hydroxymethyl)pyrrolidin-2-yl)-N-methylacetamide], the IC50 was 0.0237 µM against human OGA and 0.0099 µM in assay [2]. In assay [1], the “Selectivity: IC50(human β-hexosaminidase)/IC50(Human OGA)” value was 0.42.

For the compound `O=C(C[C@H]1N[C@H](CO)[C@@H](O)[C@H]1O)NC1CC1` [Compound A048, N-cyclopropyl-2-((2R,3S,4R,5R)-3,4-dihydroxy-5-(hydroxymethyl)pyrrolidin-2-yl)acetamide], the IC50 against human OGA is 23.8 µM; in assay [2], greater than 300 µM. In assay [1], the “Selectivity: IC50(human β-hexosaminidase)/IC50(Human OGA)” value is listed as greater than 12.6.

On to `CNC(=O)[C@H]1N[C@H](CO)[C@@H](O)[C@@H]1O` [Compound A059, (2S,3R,4R,5R)-3,4-dihydroxy-5-(hydroxymethyl)-N-methylpyrrolidine-2-carboxamide], for which the IC50 at human OGA was 0.007 µM; in assay [2] it was 0.0299 µM. The “Selectivity: IC50(human β-hexosaminidase)/IC50(Human OGA)” value in assay [1] is listed as 4.27.

For the compound `CC(=O)NC[C@@H]1[C@H](O)[C@H](O)[C@@H](CO)N1CCCc1ccccc1` [Compound A038, N-(((2R,3S,4R,5R)-3,4-dihydroxy-5-(hydroxymethyl)-1-(3-phenylpropyl)pyrrolidin-2-yl)methyl)acetamide], the IC50 on human OGA was 1.3 µM; in assay [2], greater than 300 µM. Also, the “Selectivity: IC50(human β-hexosaminidase)/IC50(Human OGA)” value in assay [1] is reported as greater than 230.

Take `CCNC(=O)C[C@H]1N[C@H](CO)[C@@H](O)[C@H]1O` [Compound A006, 2-((2R,3S,4R,5R)-3,4-dihydroxy-5-(hydroxymethyl)pyrrolidin-2-yl)-N-ethylacetamide]: the IC50 on human OGA is 1.25 µM; in assay [2], greater than 300 µM. Also, the “Selectivity: IC50(human β-hexosaminidase)/IC50(Human OGA)” value in assay [1] is greater than 234.

With `CCNC(=O)C[C@@H]1[C@@H](O)[C@H](O)[C@@H](CO)N1CCCc1ccc(Sc2ccccc2)cc1` [Compound A071, 2-((2R,3R,4R,5R)-3,4-dihydroxy-5-(hydroxymethyl)-1-(3-(4-(phenylthio)phenyl)propyl)pyrrolidin-2-yl)-N-ethylacetamide], the IC50 against human OGA was 0.007 µM; in assay [2] it was greater than 300 µM. The “Selectivity: IC50(human β-hexosaminidase)/IC50(Human OGA)” value in assay [1] is on record as greater than 42857.

For the compound `CCCNC(=O)C[C@H]1N[C@H](CO)[C@@H](O)[C@H]1O` [Compound A004, 2-((2R,3S,4R,5R)-3,4-dihydroxy-5-(hydroxymethyl)pyrrolidin-2-yl)-N-propylacetamide], the IC50 at human OGA was 0.537 µM; in assay [2], greater than 300 µM. Further, in assay [1], the “Selectivity: IC50(human β-hexosaminidase)/IC50(Human OGA)” value is on record as greater than 555.

As for `CNC(=O)C[C@H]1N[C@H](CO)[C@@H](O)[C@@H]1O` [Compound A044, 2-((2R,3R,4R,5R)-3,4-dihydroxy-5-(hydroxymethyl)pyrrolidin-2-yl)-N-methylacetamide], the IC50 is 0.0279 µM on human OGA and 0.13 µM in assay [2]. In assay [1], the “Selectivity: IC50(human β-hexosaminidase)/IC50(Human OGA)” value was 4.66.

As for `CNC(=O)C[C@@H]1[C@H](O)[C@H](O)[C@@H](CO)N1CCC1CCCCC1` [Compound A041, 2-((2R,3S,4R,5R)-1-(2-cyclohexylethyl)-3,4-dihydroxy-5-(hydroxymethyl)pyrrolidin-2-yl)-N-methylacetamide], the IC50 was found to be 0.014 µM at human OGA and 114 µM in assay [2]. For the same compound, in assay [1], the “Selectivity: IC50(human β-hexosaminidase)/IC50(Human OGA)” value came to 8142.

As to `CCCCCCN1[C@H](CO)[C@@H](O)[C@@H](O)[C@@H]1CC(=O)NC` [Compound A034, 2-((2S,3S,4R,5R)-1-hexyl-3,4-dihydroxy-5-(hydroxymethyl)pyrrolidin-2-yl)-N-methylacetamide], the results for the IC50 (against human OGA; in assay [2]) were 68 µM and greater than 300 µM, respectively. For the same compound, the “Selectivity: IC50(human β-hexosaminidase)/IC50(Human OGA)” value in assay [1] was greater than 4.41.

The values are drawn from patent US20140073801A1, “PYRROLIDINE DERIVATIVES AS SELECTIVE GLYCOSIDASE INHIBITORS AND USES THEREOF” (Summit Corporation Plc, priority 2011, published 2014).
